Data set [1] is described as follows: Dynamic laser light scattering (DLS) of oleic acid micro-/nanoemulsions. It counts as physicochemical. To be noted: for Mean Size by Intensity: DLS, emulsion with oleic acid; for Part: percentage of the peak in the sample.
Data set [2] is described as follows: Estimation of the interaction between oleic acid and the test substance. The format is physicochemical.
Data set [3] can be described thus: pH of aqueous solution of solubilizing compound mixed with oleic acid. The format is physicochemical. Conditions: solubilizing compound in water with 0.833 mol equivalents of oleic acid.
The nature of data set [4]: Estimation of solubility of the test substance in H2O. The format is physicochemical.
Data set [5] can be described thus: log P of the test substance.
Setting [6] is: water (H2O), test substance mixed with oleic acid.

Values joined by “and” are separate entries in the source; they are usually repeats but may differ in a detail not shown here. Equal values may be shown once. Where a name gives a salt, the structure may show the parent alone. Read-outs that look alike come from different tables or passages of the source. Where a SMILES comes first, the peptide text is derived from it.

One may read the logP as a log measure of how a compound divides between an organic and an aqueous phase. As a reminder, the log P is a log measure of how a compound divides between an organic and an aqueous phase. Read a high log P as higher lipophilicity.

As for `CN(C)C(N)=NCCC[C@H](N)C(=O)O.Cl.Cl` [NG,NG-Dimethylarginine dihydrochloride], in data set [1], the “Mean Size by Intensity” value was 22.9 nm and the Part was found to be 87.4%. For the same molecule, in data set [2], the “Interaction with Oleic Acid” value is given as “X, E”. Also, in data set [3], the pH is 9.45.

On to `CC(=O)NCC(=O)O.CC(=O)NCC(=O)O.N=C(N)c1ccc(N=NNc2ccc(C(=N)N)cc2)cc1` [Diminazene aceturate (basic), Diminazene aceturate, reference compound], for which, in data set [1], the “Mean Size by Intensity” value is recorded as 426 nm and the Part was 60.7%. In addition, in data set [2], the “Interaction with Oleic Acid” value is reported as “X, S, (E)”.

Turning to “4-(4,6-Diamino-2,2-dimethyl-2H-[1,3,5]triazine-1-yl”, the “Dissolved (H2O)” value in data set [4] is given as “(X)”. Also, the “Interaction with Oleic Acid” value in data set [2] is listed as “X, E, S”. Further, the pH in data set [3] worked out at 11.28.

Take `NC(=NCCC[C@H](N)C(=O)O)N[N+](=O)[O-]` [N-ω-Nitro-L-arginine]: in data set [1], the “Mean Size by Intensity” value was 85.5 nm and the Part was 46.7%. The “Interaction with Oleic Acid” value in data set [2] is given as “X, E”. In data set [3], the pH is given as 11.95.

For `N=C(N)NCCC[C@H](NC(=O)[C@@H](N)Cc1ccc(O)cc1)C(=O)O` [Tyr-Arg (Kyotorphin acetate), L-tyrosyl-L-arginine], in data set [2], the “Interaction with Oleic Acid” value was “X, E”. The pH in data set [3] was 8.54. This molecule also showed a log partition coefficient (logP) in “physchem” of -4.

Regarding `N=C(N)NCCCC(=O)O` [4-Guanidinobutyric acid], the “Interaction with Oleic Acid” value in data set [2] is “X, E”. Further, the pH in data set [3] stood at 10.41. In addition, the logP in “physchem” was -3.44.

For `NC(N)=NOCC[C@H](N)C(=O)O` [L-Canavanine free base], the “Interaction with Oleic Acid” value in data set [2] is “(X), S, E and X, E”. Further, in data set [3], the pH was 8.67 and 9.04.

For the molecule `NC(N)=NS(=O)(=O)c1ccc(N)cc1` [Sulfaguanidine, 4-amino-N-(diaminomethylen)benzensulfonamide, reference compound], the “Interaction with Oleic Acid” value in data set [2] is reported as “X, S”. The molecule also displayed a log partition coefficient (logP) in “physchem” of -1.24.

`N=C(N)NC(N)=O.O.O=S(=O)(O)O` [N-Guanylurea sulfate salt hydrate]: the “Interaction with Oleic Acid” value in data set [2] is given as “X, E”. In addition, the logP in “physchem” was found to be 3.54.

`Cc1ccccc1NC(=N)Nc1ccccc1C` [1,3-Di-o-tolyl-guanidine] yielded a logP in data set [5] (setting [6]) of 3.01.

For `CN/C(=N/CCSCc1nc[nH]c1C)NC#N` [Cimetidine, 2-cyan-1-methyl-3-[2-(5-methylimidazol-4-ylmethylsulfanyl)-ethyl]-guanidine, reference compound], in data set [1], the “Mean Size by Intensity” value worked out at 239 nm and the Part came to 67.2%. Also, the “Dissolved (H2O)” value in data set [4] is recorded as “((X))”. Moreover, the “Interaction with Oleic Acid” value in data set [2] is “X, E”. For the same molecule, the pH in data set [3] was 9.54. The same molecule came in with a logP in the data set “physchem” of 0.19.

Consider `COC(=O)[C@H](N)CCCNC(=N)N.Cl.Cl` [D-arginine methyl ester dihydrochloride], for which the “Interaction with Oleic Acid” value in data set [2] is recorded as “X, S”. Also, the pH in data set [3] was 11.35. Further, the lipophilicity (logP) in “physchem” is -2.11.

For the molecule `O=C(O)CCCNC1=NCCN1` [4-(4,5-Dihydro-1H-imidazol-2-ylamino)-butyric acid], in data set [1], the “Mean Size by Intensity” value is reported as 627 nm and the Part was determined as 58.9%. The log partition coefficient (logP) in data set [5] (setting [6]) is -1.6. The “Interaction with Oleic Acid” value in data set [2] is reported as “X, E”. The pH in data set [3] was 8.63 and 11.5.

As for `NC(N)=NCCCC[C@H](N)C(=O)O` [H-Homoarg-OH], in data set [1], the “Mean Size by Intensity” value was 107 nm and the Part came out at 68.5%. Further, the “Interaction with Oleic Acid” value in data set [2] is on record as “X, E”. Moreover, the pH in data set [3] turned out to be 8.66.

In the case of `Cl.N=C(N)Nc1ccc(C(=O)O)cc1` [4-Guanidinobenzoic acid hydrochloride], the logP in data set [5] (setting [6]) turned out to be 0.604. The “Dissolved (H2O)” value in data set [4] is “(X)”. Also, the “Interaction with Oleic Acid” value in data set [2] is reported as “X, E”. Moreover, the pH in data set [3] is on record as 11.19.

Regarding `N=C(N)NCCC(=O)O` [3-Guanidinopropionic acid], in data set [1], the “Mean Size by Intensity” value is 153 nm and the Part is on record as 64.7%. Also, the “Interaction with Oleic Acid” value in data set [2] is “X, E”. In addition, the pH in data set [3] stood at 11.71. The logP in “physchem” was -3.77.

In the case of `NCC(=O)N[C@@H](Cc1ccccc1)C(=O)O` [Gly-Phe, reference compound] (H-Gly-Phe-OH; N-terminus and C-terminus assumed), the logP in data set [5] is -0.65.

“polyhexamethylenbiguanide (PHMB) [Polyhexanide −5% (2300 bis 3100 MW), reference compound]”: the “Interaction with Oleic Acid” value in data set [2] is recorded as “X, S”. Further, the pH in data set [3] is 5.61 and 8.61.

Regarding `CN(CC(=O)O)C(=N)N` [Creatine], the “Interaction with Oleic Acid” value in data set [2] was “(X), E”. Also, the lipophilicity (logP) in “physchem” is -0.884.

As to `CC(=N)NCCCC[C@H](N)C(=O)O` [L-NIL], in data set [1], the “Mean Size by Intensity” value worked out at 349 nm and the Part turned out to be 94.1%. In addition, the “Interaction with Oleic Acid” value in data set [2] was “X, E”. In addition, in data set [3], the pH is recorded as 9.12.

For the molecule `CC(=O)NC1CCSC1=O` (racemic) [DL-N-Acetylhomocysteine thiolactone, reference compound], the pH in data set [3] amounted to 10.70.

In the case of `NC(N)=O` [Urea, reference compound], in data set [1], the “Mean Size by Intensity” value is reported as 341 nm and the Part turned out to be 96.3%. The “Interaction with Oleic Acid” value in data set [2] (60° C.) is “((X))”. Also, the pH in data set [3] is on record as 8.59.

On to `CC(=O)O.CNC(=N)NCCC[C@H](N)C(=O)O` [N-ω-monomethyl-L-arginine acetate], for which the “Interaction with Oleic Acid” value in data set [2] is given as “X, E”. In data set [3], the pH was 8.49.

On to `N=C(N)N[C@@H](CCC(=O)O)C(=O)O` [(S)-(−)-2-Guanidinoglutaric acid], for which the log partition coefficient (logP) in data set [5] (setting [6]) is -3.14. Moreover, the “Interaction with Oleic Acid” value in data set [2] was “X, E”. The pH in data set [3] is 10.15.

With “Argininosuccinic acid disodium salt hydrate”, in data set [1], the “Mean Size by Intensity” value turned out to be 721 nm and the Part came out at 74.6%. Also, the “Interaction with Oleic Acid” value in data set [2] was “X, E”. Also, in data set [3], the pH worked out at 9.93.

`CC(=O)O.CC(=O)O.N=C(NCCCCCCNC(=N)NC(=N)Nc1ccc(Cl)cc1)NC(=N)Nc1ccc(Cl)cc1` [Chlorhexidine diacetate, 1,1′-hexamethylenbis[5-(4-chlorphenyl)-biguanide], reference compound]: the “Dissolved (H2O)” value in data set [4] was “(X)”. In addition, the “Interaction with Oleic Acid” value in data set [2] was “X, S”. Further, the pH in data set [3] was 6.51 and 9.58.

Consider `Cl.N=C(N)NC[C@H](N)C(=O)O` [L-2-Amino-3-guanidinopropionic acid hydrochloride], for which, in data set [1], the “Mean Size by Intensity” value came out at 113 nm and the Part is 87.2%. In addition, the “Interaction with Oleic Acid” value in data set [2] is reported as “X, E”. Further, in data set [3], the pH is recorded as 11.05. Further, the logP in “physchem” was -3.81.

`[H]/N=C(\N/C(=N/[H])Nc1ccc(Cl)cc1)NC(C)C` [Proguanil hydrochloride, 1-(4-chlorphenyl)-5-isopropylbi-guanide, reference compound] gave a logP in data set [5] (setting [6]) of 2.53. Besides, the “Dissolved (H2O)” value in data set [4] is reported as “(X)”. Also, in data set [2], the “Interaction with Oleic Acid” value is recorded as “X, E”. The pH in data set [3] is reported as 7.66.

Molecule `N=C(N)NCCCCCC(=O)O` [6-Guanidinohexanoic acid] showed a logP in data set [5] (setting [6]) of -3.6. Further, in data set [4], the “Dissolved (H2O)” value is reported as “(X)”. Further, the “Interaction with Oleic Acid” value in data set [2] is given as “(X), E”. Also, the pH in data set [3] is 9.01.

For the molecule `c1c[nH]cn1` [Imidazole], in “physchem”, the lipophilicity (logP) was -0.67.

As to `N=C(N)N` [Guanidinehydrochloride], the “Interaction with Oleic Acid” value in data set [2] was “X, E”. The pH in data set [3] was found to be 12.71. This molecule had a logP in the data set “physchem” of -1.03.

On to `N=C(N)NCCCCN.O=S(=O)(O)O` [Agmatin sulfate], for which the “Interaction with Oleic Acid” value in data set [2] was “X, S”. The pH in data set [3] is on record as 10.53. Also, the logP in the data set “physchem” is -1.81.

For the molecule `CN(C)C(=N)NC(=N)N.Cl` [1,1-Dimethylbiguanide hydrochloride, reference compound], in data set [3], the pH was determined as 9.20.

Regarding `Nc1nc(N)nc(N)n1` [Melamine], the “Dissolved (H2O)” value in data set [4] is recorded as “(X)”. Further, the “Interaction with Oleic Acid” value in data set [2] is “X, S”. Also, the pH in data set [3] was 8.25. The molecule further came in with a logP in the data set “physchem” of -0.961.

As for “Poly-L-arginine HCl [Poly-L-arginine HCl (70.000-150.000 MW)]”, the “Interaction with Oleic Acid” value in data set [2] is listed as “X, S”.

In the case of `C[C@@H](N[C@@H](CCCN=C(N)N)C(=O)O)C(=O)O` [D-(+)-Octopine], in data set [1], the “Mean Size by Intensity” value came out at 435 nm and the Part stood at 94.7%. In addition, the “Interaction with Oleic Acid” value in data set [2] is listed as “X, E”. For the same molecule, the pH in data set [3] was 6.70.

With `NC(N)=NCC(=O)O` [Guanidine acetic acid], the “log P” value in data set [5] is given as −2.387. Moreover, in data set [4], the “Dissolved (H2O)” value was “((X))”. Also, the “Interaction with Oleic Acid” value in data set [2] was “(X), E/S”. Moreover, the pH in data set [3] stood at 6.20.

As for `NC(=NCC[C@H](N)C(=O)O)NO` [N-ω-Hydroxy-L-norarginine], in data set [1], the “Mean Size by Intensity” value is recorded as 325 nm and the Part amounted to 93.9%. In addition, the “Interaction with Oleic Acid” value in data set [2] is given as “X, E, S”. Further, the pH in data set [3] was determined as 9.51.

In turn, `N=C(N)NCCC[C@H](N)C(=O)N[C@@H](Cc1ccccc1)C(=O)O` [Arg-Phe] had a lipophilicity (logP) in data set [5] of -3.34.

Turning to `Cc1c[nH]cn1`, in data set [1], the “Mean Size by Intensity” value is recorded as 224 nm and the Part is 96.7%. The “Interaction with Oleic Acid” value in data set [2] is recorded as “X, E/S”. Also, the pH in data set [3] came out at 8.90.

Consider “Aminophenylacetic acid [reference compound]”, for which the lipophilicity (log P) in data set [5] came to 0.73. In addition, the “Dissolved (H2O)” value in data set [4] is recorded as “(X)”. Also, the “Interaction with Oleic Acid” value in data set [2] is reported as “((X))”. In data set [3], the pH is recorded as 9.23.

Source of the values: patent US9127233B2, “Device and method for solubilizing, separating, removing and reacting carboxylic acids in oils, fats, aqueous or organic solutions by means of micro-or nanoemulsification” (priority 2010, dated 2015).
